In experiment [1] the test system is Mus musculus. In words: Antinociceptive activity in Kunming mouse model assessed as latency of tail withdrawal at 1.4 nmol/kg, sc measured for 30 mins by tail-flick test relative to control. The conditions noted are these: 0.5 h. Type of experiment: functional. (In general: In hot-plate and tail-flick tests a longer latency is read as antinociception.)
Experiment [2] concerns Mus musculus. In words: Antinociceptive activity in Kunming mouse model assessed as latency of tail withdrawal at 1.4 nmol/kg, sc measured for 10 mins by tail-flick test relative to control. Type of experiment: functional.
For experiment [3], the system named is Mus musculus. The experiment in a line: Antinociceptive activity in Kunming mouse model administered orally by tail-flick test. Type of experiment: functional. The conditions noted are these: route po.
Experiment [4] concerns Mus musculus. In words: Inhibition of gastrointestinal motility in fasted Kunming mouse model treated subcutaneously for 15 mins followed by charcoal-gum arabic treatment measured after 30 mins. The conditions noted are these: 0.75 h, route sc, time 45 min. Format: functional.
Experiment [5] has as its system Mus musculus. The experiment in a line: Antinociceptive activity in Kunming mouse model assessed as latency of tail withdrawal at 1.4 nmol/kg, sc measured for 120 mins by tail-flick test relative to control. The conditions noted are these: 2 h. Type of experiment: functional.
The test system of experiment [6] is Mus musculus. In words: Antinociceptive activity in Kunming mouse model administered subcutaneously measured for 5 to 15 mins by acetic acid-induced writhing test. Format: functional. The conditions noted are these: route sc, time 5-15 min. (In general: Writhing tests count abdominal constrictions after an irritant is injected.)
In experiment [7] the test system is Mus musculus. The experiment in a line: Antinociceptive activity in Kunming mouse model assessed as latency of tail withdrawal at 1.4 nmol/kg, sc measured for 60 mins by tail-flick test relative to control. Type of experiment: functional. The conditions noted are these: 1 h.
Experiment [8] concerns Mus musculus. The experiment in a line: Antinociceptive activity in Kunming mouse model administered subcutaneously by tail-flick test. To be noted: route sc. Type of experiment: functional.
The test system of experiment [9] is Mus musculus. In words: Antinociceptive activity in Kunming mouse model assessed as latency of tail withdrawal at 144.4 nmol/kg, sc measured for 30 mins by tail-flick test relative to control. Type of experiment: functional. The conditions noted are these: 0.5 h.
For experiment [10], the target named is T1, Kappa-type opioid receptor (Homo sapiens, UniProt P41145). In words: Agonist activity at human KOR expressed in CHO-K1 cells co-expressing G-alpha15 upto 100 uM by calcium mobilization assay. Format: functional, cell-based. (Calcium assays in cells follow changes in intracellular calcium, usually with a dye or a luminescent sensor.)
T1 sequence (P41145 whole entry): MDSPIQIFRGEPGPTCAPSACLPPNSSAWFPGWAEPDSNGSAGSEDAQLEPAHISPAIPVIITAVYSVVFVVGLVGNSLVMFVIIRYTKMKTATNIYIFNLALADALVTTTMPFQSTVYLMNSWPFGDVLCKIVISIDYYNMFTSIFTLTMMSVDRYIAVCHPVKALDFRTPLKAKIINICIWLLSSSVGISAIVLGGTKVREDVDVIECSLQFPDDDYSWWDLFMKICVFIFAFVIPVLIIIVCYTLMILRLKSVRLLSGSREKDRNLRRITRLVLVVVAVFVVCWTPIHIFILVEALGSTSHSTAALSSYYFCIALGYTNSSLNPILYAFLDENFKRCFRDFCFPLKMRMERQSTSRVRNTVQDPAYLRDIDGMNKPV
Experiment [11] deals with Mus musculus. In words: Antinociceptive activity in Kunming mouse model assessed as latency of tail withdrawal at 144.4 nmol/kg, sc measured for 60 mins by tail-flick test relative to control. Type of experiment: functional. The conditions noted are these: 1 h.
The test system of experiment [12] is Mus musculus. In words: Antinociceptive activity in Kunming mouse model assessed as latency of tail withdrawal at 144.4 nmol/kg, sc measured for 10 mins by tail-flick test relative to control. Format: functional.
Experiment [13] concerns Mus musculus. The experiment in a line: Antinociceptive activity in Kunming mouse model assessed as latency of tail withdrawal at 144.4 nmol/kg, sc measured for 120 mins by tail-flick test relative to control. To be noted: 2 h. Type of experiment: functional.
For experiment [14], the target named is T2, Delta-type opioid receptor (Homo sapiens, UniProt P41143). In words: Agonist activity at human DOR expressed in CHO-K1 cells co-expressing G-alpha15 by calcium mobilization assay. Type of experiment: functional, cell-based. To be noted: cho-k1.
T2 sequence (P41143 whole entry): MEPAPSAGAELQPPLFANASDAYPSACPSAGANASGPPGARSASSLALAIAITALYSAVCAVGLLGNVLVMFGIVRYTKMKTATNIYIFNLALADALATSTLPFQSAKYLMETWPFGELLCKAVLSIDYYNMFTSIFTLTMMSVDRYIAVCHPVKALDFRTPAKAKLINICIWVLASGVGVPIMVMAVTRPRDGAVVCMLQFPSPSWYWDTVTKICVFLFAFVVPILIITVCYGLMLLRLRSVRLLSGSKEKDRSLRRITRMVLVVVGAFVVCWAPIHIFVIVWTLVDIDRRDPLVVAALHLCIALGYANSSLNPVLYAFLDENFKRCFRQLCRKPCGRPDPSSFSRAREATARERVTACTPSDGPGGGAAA
In experiment [15] the test system is Mus musculus. The experiment in a line: Antinociceptive activity in Kunming mouse model assessed as latency of tail withdrawal at 138.9 nmol/kg, sc measured for 120 mins by tail-flick test relative to control. To be noted: 2 h. Format: functional.
Experiment [16] deals with T1, Kappa-type opioid receptor. The experiment in a line: Agonist activity at human KOR expressed in CHO-K1 cells co-expressing G-alpha15 by calcium mobilization assay. To be noted: cho-k1. Type of experiment: functional, cell-based.
Experiment [17] concerns the target T3, Mu-type opioid receptor (Homo sapiens, UniProt P35372). In words: Agonist activity at human MOR expressed in CHO-K1 cells co-expressing G-alpha15 by calcium mobilization assay. To be noted: cho-k1. Format: functional, cell-based.
Experiment [18] deals with Mus musculus. The experiment in a line: Antinociceptive activity in Kunming mouse model assessed as latency of tail withdrawal at 138.9 nmol/kg, sc measured for 10 mins by tail-flick test relative to control. Type of experiment: functional.
Experiment [19] concerns the target T2, Delta-type opioid receptor. The experiment in a line: Agonist activity at human DOR expressed in CHO-K1 cells co-expressing G-alpha15 by calcium mobilization assay relative to control. Type of experiment: functional, cell-based. The conditions noted are these: filed as agonist.
Experiment [20] concerns Mus musculus. In words: Antinociceptive activity in Kunming mouse model assessed as latency of tail withdrawal at 138.9 nmol/kg, sc measured for 30 mins by tail-flick test relative to control. Type of experiment: functional. The conditions noted are these: 0.5 h.
The target in experiment [21] is T1, Kappa-type opioid receptor. In words: Agonist activity at human KOR expressed in CHO-K1 cells co-expressing G-alpha15 by calcium mobilization assay relative to control. The conditions noted are these: filed as agonist. Type of experiment: functional, cell-based.
In experiment [22] the target is T3, Mu-type opioid receptor. In words: Agonist activity at human MOR expressed in CHO-K1 cells co-expressing G-alpha15 by calcium mobilization assay relative to control. Format: functional, cell-based. The conditions noted are these: filed as agonist.
The subject of experiment [23] is Mus musculus. In words: Antinociceptive activity in Kunming mouse model assessed as latency of tail withdrawal at 138.9 nmol/kg, sc measured for 60 mins by tail-flick test relative to control. Format: functional. To be noted: 1 h.
In experiment [24] the test system is Mus musculus. In words: Antinociceptive activity in Kunming mouse model assessed as latency of tail withdrawal at 132.2 nmol/kg, sc measured for 120 mins by tail-flick test relative to control. Format: functional. The conditions noted are these: 2 h.
Experiment [25] concerns Mus musculus. In words: Antinociceptive activity in Kunming mouse model assessed as latency of tail withdrawal at 132.2 nmol/kg, sc measured for 10 mins by tail-flick test relative to control. Type of experiment: functional.
Experiment [26] deals with Mus musculus. In words: Antinociceptive activity in Kunming mouse model assessed as latency of tail withdrawal at 132.2 nmol/kg, sc measured for 30 mins by tail-flick test relative to control. Type of experiment: functional. The conditions noted are these: 0.5 h.
The test system of experiment [27] is Mus musculus. In words: Antinociceptive activity in Kunming mouse model assessed as latency of tail withdrawal at 132.2 nmol/kg, sc measured for 60 mins by tail-flick test relative to control. Format: functional. The conditions noted are these: 1 h.
The subject of experiment [28] is Mus musculus. The experiment in a line: Antinociceptive activity in Kunming mouse model assessed as latency of tail withdrawal at 164.1 nmol/kg, sc measured for 30 mins by tail-flick test relative to control. Format: functional. To be noted: 0.5 h.
Experiment [29] relates to Mus musculus. The experiment in a line: Antinociceptive activity in Kunming mouse model assessed as latency of tail withdrawal at 164.1 nmol/kg, sc measured for 120 mins by tail-flick test relative to control. Format: functional. The conditions noted are these: 2 h.
For experiment [30], the system named is Mus musculus. In words: Antinociceptive activity in Kunming mouse model assessed as latency of tail withdrawal at 164.1 nmol/kg, sc measured for 10 mins by tail-flick test relative to control. Format: functional.
Experiment [31] relates to Mus musculus. In words: Antinociceptive activity in Kunming mouse model assessed as latency of tail withdrawal at 164.1 nmol/kg, sc measured for 60 mins by tail-flick test relative to control. Format: functional. The conditions noted are these: 1 h.

The source made the active and inactive calls. No cut-off for these calls is given here.

From ChEMBL document CHEMBL5532665 (J Med Chem, 2024) come the findings set out here.

T3 sequence (P35372 whole entry): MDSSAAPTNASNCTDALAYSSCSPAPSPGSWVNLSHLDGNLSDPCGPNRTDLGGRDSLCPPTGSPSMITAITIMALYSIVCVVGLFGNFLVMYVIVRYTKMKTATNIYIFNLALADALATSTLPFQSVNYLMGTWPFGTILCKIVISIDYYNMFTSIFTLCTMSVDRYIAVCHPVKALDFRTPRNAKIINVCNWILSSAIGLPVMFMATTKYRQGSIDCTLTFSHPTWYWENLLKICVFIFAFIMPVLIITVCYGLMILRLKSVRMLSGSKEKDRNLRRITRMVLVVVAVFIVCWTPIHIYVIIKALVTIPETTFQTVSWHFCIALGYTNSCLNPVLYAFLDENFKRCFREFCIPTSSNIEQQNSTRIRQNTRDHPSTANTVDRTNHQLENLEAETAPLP

The term ED50 denotes the midpoint of the dose-response relation. Regarding `NC(=O)[C@H]1CCCN1C(=O)[C@@H]1CC(=O)NCCCC[C@@H](NC(=O)[C@@H](N)Cc2ccc(O)cc2)C(=O)NCC(=O)N[C@@H](Cc2ccc(F)cc2)C(=O)N1`, the MPE in the experiment with Mus musculus [1] worked out at 93.1%; in the experiment with Mus musculus [2] it was 59.2%; in the experiment with Mus musculus [5], 34.3%; in the experiment with Mus musculus [7] it was 84.1%. The ED50 stood at 9e-05 µmol/kg in the experiment on Mus musculus [3], 0.0044 µmol/kg with Mus musculus [4], 0.0002 µmol/kg with Mus musculus [6] and 8e-05 µmol/kg in the experiment on Mus musculus [8].

With `NC(=O)[C@@H]1CCCN1C(=O)[C@H]1CC(=O)NCCCC[C@@H](NC(=O)[C@@H](N)Cc2ccc(O)cc2)C(=O)NCC(=O)N[C@@H](c2ccccc2)C(=O)N1`, the MPE is 94.4% in the experiment on Mus musculus [9], 87.5% in the experiment with Mus musculus [11], 44.4% in the experiment with Mus musculus [12] and 44.4% in the experiment on Mus musculus [13]. Besides, the result in [10] was inactive.

As usually defined, the EC50 is the concentration at which the effect is half-maximal. A word on the Emax: it is the size of the effect at its maximum, as opposed to the concentration needed. For `NC(=O)[C@H]1CCCCN1C(=O)[C@H]1CC(=O)NCCCC[C@@H](NC(=O)[C@@H](N)Cc2ccc(O)cc2)C(=O)NCC(=O)N[C@@H](Cc2ccccc2)C(=O)N1`, the figures for the EC50 (in [14]; in experiment [16]; on Mu-type opioid receptor [17]) were 0.2 nM, 2280 nM and 4.9 nM, respectively. In addition, the MPE was 26.7% in the experiment on Mus musculus [15], 59.6% in the experiment with Mus musculus [18], 86.8% in the experiment with Mus musculus [20] and 61.4% with Mus musculus [23]. In addition, the Emax in [19] is 95.4%; in experiment [21], 68.7%; at Mu-type opioid receptor [22] it was 99.6%.

`NC(=O)[C@H]1CCCN1C(=O)[C@@H]1CC(=O)NCCCC[C@@H](NC(=O)[C@@H](N)Cc2ccc(O)cc2)C(=O)NCC(=O)N[C@@H](Cc2ccc3ccccc3c2)C(=O)N1`: the MPE in the experiment with Mus musculus [24] was found to be 26.8%; in the experiment with Mus musculus [25], 78.1%; with Mus musculus [26] it was 94.8%; with Mus musculus [27], 76.9%.

With `NC(=O)[C@@H]1CC(=O)NCCCC[C@@H](NC(=O)[C@@H](N)Cc2ccc(O)cc2)C(=O)NCC(=O)N[C@@H](Cc2ccccc2)C(=O)N1`, the MPE in the experiment on Mus musculus [28] is on record as 95.4%; in the experiment on Mus musculus [29] it was 43.8%; in the experiment on Mus musculus [30], 70.7%; in the experiment with Mus musculus [31], 71.9%.
